Source: PubChem BioAssay (NCI)
Where “and” joins values, the source holds several entries; their conditions need not be identical. Equal entries are not always repeated.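 Cultured in 96-well plates, cells were exposed to test compound for 48 hours across five concentrations. Here, GI50 denotes the concentration required for 50% inhibition of growth. TGI is the concentration that stops growth completely.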

Experiments:
Assay in all cases: growth of human tumour cells (NCI), 48 h
[1] = tested on: HOP-92 NSCLC
[2] = tested on: OVCAR-5 ovarian
[3] = tested on: PC-3 prostate
[4] = tested on: HT29 colon
[5] = tested on: 786-0 renal
[6] = tested on: SF-295 CNS
[7] = tested on: HCT-116 colon
[8] = tested on: OVCAR-8 ovarian
[9] = tested on: A498 renal
[10] = tested on: MDA-MB-231 breast

C=CCc1ccc(O)c(-c2ccc(O)c(CC=C)c2)c1
GI50 [1]: 13.9 µM | TGI [1]: 31.1 µM | GI50 [2]: 16.8 µM | TGI [2]: 38.9 µM | GI50 [3]: 15.2 µM | TGI [3]: 33.2 µM | GI50 [4]: 23.3 µM | TGI [4]: 53.8 µM | GI50 [5]: 16.8 µM | TGI [5]: 33.5 µM | GI50 [6]: 19.6 µM | TGI [6]: 44.7 µM | GI50 [7]: 20 µM | TGI [7]: > 54 µM | GI50 [8]: 32.8 µM | TGI [8]: > 60.9 µM | GI50 [9]: 17.4 µM | TGI [9]: 31.9 µM | GI50 [10]: 12.1 µM | TGI [10]: 25.6 µM

COc1ccccc1Nc1ncc(-c2ccccc2)o1
GI50 [1]: > 25 µM | TGI [1]: > 25 µM | GI50 [2]: > 25 µM | TGI [2]: > 25 µM | GI50 [3]: > 25 µM | TGI [3]: > 25 µM | GI50 [4]: > 25 µM | TGI [4]: > 25 µM | GI50 [5]: > 25 µM | TGI [5]: > 25 µM | GI50 [6]: > 25 µM | TGI [6]: > 25 µM | GI50 [7]: > 25 µM | TGI [7]: > 25 µM | GI50 [8]: > 25 µM | TGI [8]: > 25 µM | GI50 [9]: > 25 µM | TGI [9]: > 25 µM | GI50 [10]: > 25 µM | TGI [10]: > 25 µM

CSc1nc(NC2OC(COC(C)=O)C(OC(C)=O)C(OC(C)=O)C2OC(C)=O)c(N=CC=Nc2c(NC3OC(COC(C)=O)C(OC(C)=O)C(OC(C)=O)C3OC(C)=O)nc(SC)n(C)c2=O)c(=O)n1C (configuration not stated)
GI50 [1]: 14.8 µM | TGI [1]: 50 µM and 64.5 µM | GI50 [2]: > 50 µM | TGI [2]: > 100 µM | GI50 [3]: > 50 µM | TGI [3]: > 100 µM | GI50 [4]: > 50 µM | TGI [4]: > 100 µM | GI50 [5]: 16.7 µM | TGI [5]: 50 µM and > 80.6 µM | GI50 [6]: > 50 µM | TGI [6]: > 50 µM and 98.8 µM | GI50 [7]: > 50 µM | TGI [7]: > 100 µM | GI50 [8]: > 50 µM | TGI [8]: > 100 µM | GI50 [9]: > 50 µM | TGI [9]: > 50 µM and 82.8 µM | GI50 [10]: 25.2 µM | TGI [10]: 50 µM and > 100 µM

COc1ccc(C(O)(CCC(C)C)C(CN2CCOCC2)c2ccc(Cl)cc2)cc1 (configuration not stated)
GI50 [1]: 8 µM | TGI [1]: 21.7 µM | GI50 [2]: 12.2 µM | TGI [2]: 25.7 µM | GI50 [3]: 6.03 µM | TGI [3]: 21 µM | GI50 [4]: 4.41 µM | TGI [4]: 20.1 µM | GI50 [5]: 14 µM | TGI [5]: 28.6 µM | GI50 [6]: 13.4 µM | TGI [6]: 29.8 µM | GI50 [7]: 4.68 µM | TGI [7]: 19.1 µM | GI50 [8]: 16.1 µM | TGI [8]: 41.5 µM | GI50 [9]: 10.9 µM | TGI [9]: 23.4 µM | GI50 [10]: 12.1 µM | TGI [10]: 27.2 µM

Cc1ccc(Nc2oc(-c3ccccc3)nc2[P+](c2ccccc2)(c2ccccc2)c2ccccc2)cc1
GI50 [1]: 0.209 µM | TGI [1]: 1.02 µM | GI50 [2]: 1.63 µM | TGI [2]: 4.38 µM | GI50 [3]: 0.585 µM | TGI [3]: 2.01 µM | GI50 [4]: 0.38 µM | TGI [4]: 1.59 µM | GI50 [5]: 1.1 µM | TGI [5]: 2.45 µM | GI50 [6]: 1.24 µM | TGI [6]: 2.6 µM | GI50 [7]: 0.377 µM | TGI [7]: 1.39 µM | GI50 [8]: 1.04 µM | TGI [8]: 3.34 µM | GI50 [9]: 0.697 µM | TGI [9]: 2.36 µM | GI50 [10]: 0.788 µM | TGI [10]: 2.17 µM

C=COC(=O)N[C@H]1CCc2cc(OC)c(OC)c(OC)c2-c2ccc(SC)c(=O)cc21
TGI [1]: 22.8 µM | TGI [2]: > 75 µM | TGI [3]: > 100 µM | TGI [4]: 0.149 µM | TGI [5]: 50.8 µM | TGI [6]: 0.0769 µM | TGI [7]: 0.74 µM | TGI [8]: > 80.7 µM | TGI [9]: 0.395 µM | TGI [10]: 1.88 µM

CN(C)C/C=C/C(=O)Nc1cc2c(Nc3ccc(F)c(Cl)c3)ncnc2cc1O[C@H]1CCOC1
GI50 [1]: 0.227 µM | TGI [1]: 4.44 µM | GI50 [2]: 0.843 µM and 0.345 µM | TGI [2]: 13.3 µM and > 10 µM | GI50 [3]: 3.19 µM and 3.26 µM | TGI [3]: 12.8 µM and > 10 µM | GI50 [4]: 0.815 µM and 0.756 µM | TGI [4]: 3.49 µM and > 10 µM | GI50 [5]: 2.3 µM and 1.79 µM | TGI [5]: 13.9 µM and > 10 µM | GI50 [6]: 4.93 µM and 3.32 µM | TGI [6]: 20.9 µM and > 10 µM | GI50 [7]: 0.448 µM and 0.679 µM | TGI [7]: 1.93 µM and > 5.87 µM | GI50 [8]: 1.36 µM and 1.88 µM | TGI [8]: 5.37 µM and > 6.85 µM | GI50 [9]: 0.155 µM and 0.106 µM | TGI [9]: 2.55 µM and 2.3 µM | GI50 [10]: 1.2 µM and 0.806 µM | TGI [10]: 7.06 µM and 4.75 µM

CN(C)C(=S)Sc1ccc([N+](=O)[O-])cc1[N+](=O)[O-]
GI50 [1]: 2.95 µM | TGI [1]: 11.2 µM | GI50 [2]: 6.01 µM | TGI [2]: 18.1 µM | GI50 [3]: 2.17 µM | TGI [3]: 13.3 µM | GI50 [4]: 0.325 µM | TGI [4]: 1.67 µM | GI50 [5]: 5.3 µM | TGI [5]: 16 µM | GI50 [6]: 14.5 µM | TGI [6]: 29 µM | GI50 [7]: 1.54 µM | TGI [7]: 3.7 µM | GI50 [8]: 3.27 µM | TGI [8]: 12 µM | GI50 [9]: 9.47 µM | TGI [9]: 22 µM | GI50 [10]: 3.04 µM | TGI [10]: 11.9 µM

C/C(=N\NC(=S)N1CCCCCC1)c1ccccn1
GI50 [1]: 0.217 µM | TGI [1]: 0.3 µM | GI50 [2]: < 0.0165 µM | TGI [2]: 2.67 µM and 3.98 µM | GI50 [3]: 0.183 µM | TGI [3]: 2.9 µM and 2.61 µM | TGI [4]: 2.52 µM and 10.6 µM | GI50 [5]: 0.0992 µM | TGI [5]: 2.17 µM and 3.12 µM | GI50 [6]: 0.0137 µM | TGI [6]: 2.3 µM | TGI [7]: 3.16 µM and 4.28 µM | TGI [8]: 3.48 µM and 4.57 µM | GI50 [9]: 0.163 µM | TGI [9]: 2.59 µM and 1.57 µM | GI50 [10]: 0.147 µM | TGI [10]: 5.31 µM and 9.96 µM

Cn1c(Nc2ccc(C(F)(F)F)cc2)nc2cc(Oc3ccnc(-c4ncc(C(F)(F)F)[nH]4)c3)ccc21
GI50 [1]: 0.408 µM | TGI [1]: 7.26 µM | GI50 [2]: 1.53 µM | TGI [2]: 17.4 µM | GI50 [3]: 1.53 µM | TGI [3]: 17.2 µM | GI50 [4]: 0.124 µM | TGI [4]: 3.56 µM | GI50 [5]: 2.22 µM | TGI [5]: 13.9 µM | GI50 [6]: 0.402 µM | TGI [6]: 11.8 µM | GI50 [7]: 0.0787 µM | TGI [7]: 7.06 µM | GI50 [8]: 0.775 µM | TGI [8]: 14.1 µM | GI50 [9]: 0.0297 µM | TGI [9]: 0.851 µM | GI50 [10]: 0.803 µM | TGI [10]: 12.2 µM
